Test results published in US4780412A, “Fibrinolytic enzymes produced from established non-cancerous cell lines” (priority 1982, dated 1988).
Where a name gives a salt, the structure may show the parent alone. Square brackets hold non-standard residues; d marks the D form. Peptide text beside a SMILES is read from it. * marks the point of attachment. pNA = O=[N+]([O-])c1ccc(N*)cc1; Bz = O=C(c1ccccc1)*

Legend:
[1] = target: T1, GPK derived enzyme (from cell line GPK, CNCMI-222) (Cavia porcellus, UniProt H0W0Z7); test: Inhibition of GPK-derived enzyme activity by 2-mercaptoethanol (fibrin plate, fibrin clot lysis time); format: biochemical; details: 2-mercaptoethanol at 10 mM or above, incubated 15 min at 37° C., pH 7.8; residual activity on plasminogen containing fibrin plate and by clot lysis time
T1 construct: residual activity on plasminogen-containing fibrin plate
Procedure: Various dilutions of the stock solution of 2-mercaptoethanol were prepared in 0.05M sodium diethylbarbiturate buffer, pH 7.8 containing 0.01% Tween 80. GPK derived enzyme (25 μg/ml) was mixed with an equal volume of diluted 2-mercaptoethanol solution and the mixture incubated at 37° C. Control sample contained enzyme with an equal volume of buffer. After 15 min, 50 μl aliquot of the mixture was applied to plasminogen containing fibrin plate to assess the residual enzyme activity. The enzyme activity was also quantitated by fibrin clot lysis time method.

[2] = tested on: Thrombin; details: values quoted in literature; cited from earlier work
[3] = target: T2, GPK derived enzyme, partially purified (fibrinolytic enzyme / plasminogen activator from cell line GPK, CNCMI-222) (Cavia porcellus, UniProt H0W0Z7); test: Amidolytic activity on chromogenic substrates (release of p-nitroaniline at 405 nm); format: biochemical
T2 construct: zinc chelate agarose, partially purified from culture supernatant
Procedure: The amidolytic activity of the GPK derived enzyme was determined using various chromogenic substrates. […] Z

[4] = target: Melanoma (malignant melanoma plasminogen activator, HEPA) (Homo sapiens, UniProt P00750); details: values quoted in literature; cited from earlier work
[5] = target: Urokinase (Homo sapiens, UniProt P00749); details: values quoted in literature; cited from earlier work
[6] = tested on: Plasmin; details: values quoted in literature; cited from earlier work

T2 sequence (H0W0Z7 33-559): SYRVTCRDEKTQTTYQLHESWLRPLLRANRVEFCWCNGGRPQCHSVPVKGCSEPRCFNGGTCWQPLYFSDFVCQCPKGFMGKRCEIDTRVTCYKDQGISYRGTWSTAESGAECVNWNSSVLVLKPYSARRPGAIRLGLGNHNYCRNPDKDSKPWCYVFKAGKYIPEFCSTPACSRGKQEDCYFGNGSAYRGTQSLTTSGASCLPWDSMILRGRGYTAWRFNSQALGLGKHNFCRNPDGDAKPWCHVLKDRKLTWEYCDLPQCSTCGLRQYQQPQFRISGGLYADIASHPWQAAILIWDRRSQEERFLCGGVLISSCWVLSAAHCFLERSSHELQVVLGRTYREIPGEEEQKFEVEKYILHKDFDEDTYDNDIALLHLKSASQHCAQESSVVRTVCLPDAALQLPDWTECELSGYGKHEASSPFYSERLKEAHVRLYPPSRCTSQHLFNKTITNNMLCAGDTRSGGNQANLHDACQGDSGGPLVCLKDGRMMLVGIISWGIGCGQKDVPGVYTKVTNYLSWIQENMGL
Chain of Melanoma (malignant melanoma plasminogen activator, HEPA) (P00750 36-562): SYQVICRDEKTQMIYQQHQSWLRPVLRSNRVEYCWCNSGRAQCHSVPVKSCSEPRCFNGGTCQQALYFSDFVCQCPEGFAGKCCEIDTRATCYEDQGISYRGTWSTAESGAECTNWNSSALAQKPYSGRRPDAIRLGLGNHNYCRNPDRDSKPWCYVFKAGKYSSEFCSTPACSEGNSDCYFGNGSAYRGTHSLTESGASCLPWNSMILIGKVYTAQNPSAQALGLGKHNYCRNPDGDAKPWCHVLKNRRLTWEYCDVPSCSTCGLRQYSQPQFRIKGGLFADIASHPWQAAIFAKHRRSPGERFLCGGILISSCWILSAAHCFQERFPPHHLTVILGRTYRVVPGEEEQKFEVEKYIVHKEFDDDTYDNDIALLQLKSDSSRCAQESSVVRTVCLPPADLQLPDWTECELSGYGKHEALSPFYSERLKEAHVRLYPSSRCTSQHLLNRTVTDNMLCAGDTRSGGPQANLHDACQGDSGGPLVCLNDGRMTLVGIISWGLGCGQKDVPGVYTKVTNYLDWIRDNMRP
T1 sequence (H0W0Z7 33-559): as the sequence (H0W0Z7 33-559) above

Structure (SMILES) | Km [2] | Vmax [2] | Km [5] | Vmax [5] | Km [6] | Vmax [6] | also measured
OCCS [2-mercaptoethanol] | – | – | – | – | – | – | proportion of the enzyme activity inhibited [1]: > 80%
CC(C)[C@H](NC(=O)[C@H](Cc1ccccc1)NC(=O)c1ccccc1)C(=O)N[C@@H](CCCNC(=N)N)C(=O)Nc1ccc([N+](=O)[O-])cc1 [Benzoyl-Phe--Val--Arg--pNa.HCl] (Bz-Phe-Val-Arg-pNA) | 110 µM | 0.036 M/min/NIH.U | – | – | – | – | –
CC(C)[C@H](NC(=O)c1ccccc1)C(=O)NCC(=O)N[C@@H](CCCNC(=N)N)C(=O)Nc1ccc([N+](=O)[O-])cc1 [Benzoyl-Val--Gly--Arg--pNA.HCl] (Bz-Val-Gly-Arg-pNA) | – | – | – | – | – | – | Vmax ([3]; pH 9.0 (line above), ionic strength I 0.0035, substrate concentration by extinction): 1.4 M/min/M enzyme; Vmax ([3]; pH 9.0, ionic strength I 0.05, 0.05M Tris-HCl, 37° C.): 1.1 M/min/M enzyme; Km [4]: 1000 µM; Vmax [4]: 0.53 M/min/IU
N=C(N)NCCC[C@H](NC(=O)[C@H](CCC(=O)O)NC(=O)[C@@H](N)CCC(=O)O)C(=O)Nc1ccc([N+](=O)[O-])cc1 [Glu--Glu--Arg--pNA.HCl] (H-Glu-Glu-Arg-pNA) | – | – | 90 µM | 3.1 × 10^-4 M/min/PLOUG.U | – | – | –
CC[C@@H](C)[C@@H](N)C(=O)N1CCC[C@H]1C(=O)N[C@@H](CCCNC(=N)N)C(=O)Nc1ccc([N+](=O)[O-])cc1 [H--D--Ile--Pro--Arg--pNA.2HCl] (H-[dI]-Pro-Arg-pNA) | 3 µM | 0.1 M/min/U | 200 µM | 2 × 10^-4 M/min/U | 9000 µM | 5 m/min/U | –
CC(C)C[C@H](NC(=O)[C@H](N)C(C)C)C(=O)N[C@@H](CCCCN)C(=O)Nc1ccc([N+](=O)[O-])cc1 [H--D--Val--Leu--Lys--pNA.2HCl] (H-[dV]-Leu-Lys-pNA) | – | – | – | – | 300 µM | 0.5 M/min/CU | Vmax ([3]; pH 7.4, ionic strength I 0.006, 0.05M Tris-HCl, 37° C.): 27 M/min/M enzyme; Vmax ([3]; pH 7.4, ionic strength I 0.15, 0.05M Tris-HCl, 37° C.): 14.7 M/min/M enzyme; Vmax ([3]; pH 9.0, ionic strength I 0.15, 0.05M Tris-HCl, 37° C.): 4.08 M/min/M enzyme
